Experimental data: US5661001A, “High molecular weight desulphatohirudin” (Ciba-Geigy Corporation, priority 1993, dated 1997)

Experiments:
α-thrombin = α-thrombin (Homo sapiens, UniProt P00734); assay: antithrombin activity: inhibition of α-thrombin digesting Chromozym TH; format: biochemical
Method: The amino acid composition is determined by the dimethylaminoazobenzene sulfonyl (dabsyl) chloride method (Chang et al. Anal. Biochem. (1991), 197, 52-58.), which allows direct quantization of the disulfide content. The amino acid sequence was analyzed by an Applied Biosystem Inc. 470A protein sequencer. The antithrombin activity of desulphatohirudin derivatives was assessed by their ability to inhibit α-thrombin from digesting Chromozym TH (Boehringer Mannheim), using the described protocol (Stone et al. Biochemistry (1986), 25, 4622-4628; Chatrenet et al. J. Biol. Chem. (1992), 267, 3038-3043). The molecular weight of desulphatohirudin is […], determined by the laser desorption ionization mass spectrometry using a home-built instrument (Boernsen et al. Chimia (1990), 44, 412-416).

plasma APTT = assay: ex vivo plasma APTT after subcutaneous administration in the rat; settings: s.c. 1 ml/kg, dimer 4.5 mg/ml, HV1 3.0 mg/ml, mean±SEM, n=5
Method: (APTT=activated partial thrombin time)
[Cys^33 ]HV1--[Cys^33 ]HV1 dimer is dissolved in saline to a concentration of 4.5 mg/ml and unmodified hirudin-monomer is dissolved in saline to a concentration of 3.0 mg/ml (these doses are chosen based on the in vitro results in order to achieve a similar effect on APTT at 1 h). Solutions are administered subcutaneously to rats (1 ml/kg). At various times after administration, blood (2 ml) is collected by cardiac puncture directly into one tenth volume trisodium titrate solution (3.8% w/v) and immediately mixed. The anticoagulated blood is centrifuged at 2500 g for 20 min to obtain platelet free plasma.
Plasma samples are assayed for APTT using standard methods on the Instrumentation Laboratory ACL 300R coagulometer. The method for APTT determination utilizes the Instrumentation Laboratory ellagic acid test kit--plasma (50 μl) is incubated with ellagic acid activating reagent (50 μl) at 37° C. for 5 min prior to the addition of calcium chloride solution (50 μl of 25 mM solution) and the time taken for the plasma clot is recorded automatically, the end point being determined optically by the light scattered when the fibrin network formed (see table 1).
The results are expressed as a multiple of the means control APTT value and presented as mean±standard error of the mean (n=5).

human thrombin = human thrombin (Homo sapiens, UniProt P00734); assay: kinetic parameters for inhibition of human thrombin (progress-curve experiments, D-Phe-pipecolyl-Arg-p-nitroanilide); format: biochemical; settings: substrate 100 μM, enzyme 20 pM; weighted means of two determinations
Method: The kinetic parameters of the [Cys^33 ]HV1--[Cys^33 ]HV1 dimer are determined from progress-curve experiments as described by Stone et al. Biochemistry (1986), 25, 4622-4628 and Braun et al. Biochemistry, (1988), 27, 6517-6522. For each determination, the formation of p-nitroaniline from D-Phe-pipecolyl-Arg-p-nitroanilide is monitored in six assays, one in absence of inhibitor and the others with different concentrations of inhibitor ranging from 10 to 60 pM for the [Cys^33 ]HV1--[Cys^33 ]HV1 dimer. The substrat concentration is 100 μM and the enzyme concentration is 20 pM.
The kinetic parameters are determined twice and values given in table 2 represent the weightened means of the estimates.

## Cys^33 monomer: mutant of recombinant desulphatohirudin HV1 with cysteine replacing aspartic acid at position 33 (SEQ ID NO: 8)
α-thrombin; comparison of Cys33 monomer and dimer
  potency of thrombin inhibition, monomer versus dimer: nearly indistinguishable (±3%)

## HV1: unmodified desulphatohirudin variant 1 monomer, used as comparator
α-thrombin; 1 nM desulphatohirudin, 1.5 nM α-thrombin
  thrombin inhibition (inhibitory activity, equal weight basis): 82±5%
Plasma APTT; 0 hours
  APTT as multiple of the mean control APTT value: 1.00 ± 0.02 multiple of control APTT
Plasma APTT; 1 hour
  APTT as multiple of the mean control APTT value: 2.44 ± 0.07 multiple of control APTT
Plasma APTT; 4 hours
  APTT as multiple of the mean control APTT value: 1.43 ± 0.05 multiple of control APTT
Plasma APTT; 6 hours
  APTT as multiple of the mean control APTT value: 0.95 ± 0.02 multiple of control APTT
Human thrombin
  10^8 k1: 1.37 ± 0.03 M^-1 s^-1
